Results on 1 substance are retold here after patent publication US6759385B1, “Methods to treat undesirable immune responses” (Regents of the University of Minnesota, priority 1997, dated 2004).

Values joined by “and” are separate entries in the source; they are usually repeats but may differ in a detail not shown here. Identical values can stand only once.

The test system of assay [1] is CD8+ depleted spleen cells. The assay can be described thus: Lymphocyte proliferation assay, CD8+ depleted spleen cells of IL-4 KO mice. The conditions noted are these: IL-4 KO mice immunized with TAChR, 10 μg/ml peptide. It is filed as cell-based, mouse. On the procedure: Lymphocyte Proliferation Assay. Two weeks after the last immunization, spleen cells (Bellone et al., 1991) were obtained from three identically treated IL-4 KO mice. The cells were pooled and depleted them in CD8^+ cells using paramagnetic beads and rat anti-mouse CD8^+ antibody (Pharmingen, San Diego, Calif.). The cells were suspended in RPMI-1640 (Gibco, Grand Island, N.Y.) supplemented with 10% heat inactivated fetal calf serum (Gibco), 50 μM 2-mercaptoethanol, 1 mM L-glutamine, 10 mM Hepes, 1 mM sodium pyruvate, 100 U/ml penicillin and 100 μg/ml streptomycin (×10^6 cells/ml). The cells were seeded in triplicate in 96 flat-bottom well plates (200 μl/well). One of the following antigens or stimulants was added: 10 μg/ml phytohemoagglutinine (PHA) (Sigma); 10 μg/ml TAChR; the pools of overlapping peptides spanning the α, β, γ, or δ subunit sequences (5 μg/ml) of each peptide); and 10 μg/ml of the individual a subunit peptides. Controls were triplicate wells cultivated without any antigen, or with or a 20-residue control peptide synthesized by the same method, unrelated to the TAChR sequence (10 μg). After four days the cells were labeled for 16 hours with ^3H-thymidine (1 μCi per well, specific activity 6.7 Ci/mmol, Dupont, Boston, Mass.), and harvested (Titertek, Skatron, Sterling, Va.). The ^3H-thymidine incorporation was measured by liquid scintillation.

The test system of assay [2] is established EMG in B6 mice. The assay can be described thus: Subcutaneous treatment, post-priming protocol, established EMG (Example IV). Type of assay: in vivo, mouse. The conditions noted are these: at 44 weeks, s.c. post-priming protocol. As to the method:
B6 mice (Jackson Laboratory, Bar Harbor, Me.) were injected s.c. with 100 μl of PBS containing increasing amounts of a pool of the same amount in weight of each of the three epitope peptides Tα150-169, Tα180-200 and Tα360-378 (‘peptide pool’), or 200 μg of Tα150-169 alone, or 100 μl of PBS containing 0.1% Triton X-100 and 10 μg of solubilized TAChR. Two different treatment schedules were used, referred to as prevention and post-priming protocols. In the prevention protocol, the peptides or solubilized TAChR were administered twice per week for 14 weeks, starting 2 weeks before the beginning of the immunization with TAChR. In the post-priming protocol, peptides or solubilized TAChR were administered twice per week for […], starting 8 weeks after the beginning of the TAChR immunization. Control mice received 100 μl of peptide-free PBS, following the same schedules.
Immunization 8-10 week old mice were immunized by s.c. injections, along the back and at the base of the tail, of TAChR (a total of 50 μg in 100 μl of PBS for each immunization) emulsified in an equal volume of CFA for the first injection, and IFA for the following two boosts. The mice were injected for a total of three times at 3-4 week intervals. At the end of the observation period, the mice received a third boost, and were sacrificed 5-7 days later. Control mice were injected with clean PBS in the appropriate adjuvant.
Evaluation of the symptoms of EMG The EMG symptoms were quantified using a forced exercise test sensitized by i.p. injection of a minute amount of pancuronium bromide (0.03 mg/kg) just before the test (Karachunski et al., 1995). The mouse hangs from a grid suspended above a soft padding, and the time it takes the mouse to fall three times (‘holding time’) was measured. The test is parametric, and gives a quantitative assessment of the mouse weakness. The myasthenic nature of the weakness was verified by injecting i.p. edrophonium chloride (Reversol, Organon, West Orange, N.J.), which is a cholinesterase inhibitor. […] The mice were tested without knowledge of their treatment. […]

In a further assay the test system is serum anti-TAChR Ab. Nature of the assay: Anti-TAChR IgG and IgG1 radioimmunoprecipitation assay (Example IV). It is filed as in vivo, mouse. On the procedure:
Anti-TAChR Ab assay. Sera was obtained from each mouse after each clinical testing and at the end of the observation period (12 weeks after beginning of the TAChR immunization). The serum concentration of anti-TAChR IgG and IgGI was determined by radioimmunoprecipitation assay, using TAChR solubilized in Triton X-100 and labeled by the binding of ^125I-α-BTX (Bellone et al., 1991a). As a secondary Ab, either rabbit anti-mouse IgG produced, or goat anti-mouse IgG1 (Sigma, St. Louis, Mo.), was used. The anti-TAChR Ab concentration is expressed as μM precipitated ^125I-α-BTX binding sites.
Two types of experiments were carried out. In one of them the total anti-TAChR Ab in the sera of individual mice, obtained 8, 10 and 12 weeks after the first TAChR immunization, was determined. In the other, the anti-TAChR IgG1 concentration was determined, as well as the total anti-TAChR IgG concentration, in sera obtained at the end of the observation period. For this second assay pooled sera from five mice that had received identical treatments was used.

[3] abbreviates: s.c. 200 μg, pooled sera of five mice.

Regarding “peptide Tα150-169: synthetic peptide corresponding to residues 150-169 of the TAChR α subunit (TYDGTKVSISPESDRPDLST; UniProt P02710 174-193, looked up, fragment)”, the “recognition of individual peptide by cells from sham-treated mice” value in assay [1] was “recognized strongly”. For the same substance, the “mice with holding times of 6.2 or less” value in assay [2] amounted to 6%. The “reduction of anti-TAChR IgG1” value in the assay with serum anti-TAChR Ab (200 μg, p<0.008) was “very modest reduction”. In the assay with serum anti-TAChR Ab (at 12 weeks, s.c. prevention protocol), the “anti-TAChR Ab concentrations compared with sham-treated groups” value is “significantly and substantially lower”. Further, in the assay on serum anti-TAChR Ab (setting [3]), the “IgG1 anti-TAChR” value was 0.22 ± 0.005 µM and 0.27 ± 0.01 µM; the “Total IgG anti-TAChR” value was 0.47 ± 0.01 µM and 0.28 ± 0.015 µM.
